Assay results: ChEMBL document CHEMBL1201862, “PubChem BioAssay data set” (2004)
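Each compound was tested at five concentrations against cells in 96-well plates for 48 hours. GI50 marks 50% less growth.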 Calls of active or inactive are those of the source. Cut-off read from the data, not from the text of the source: active = GI50 up to about 1.1 µM and inactive = higher.

Columns and labels:
Test in all cases: NCI tumour cell line growth inhibition, 48 h
SK-MEL-5 = test system: SK-MEL-5
M14 = test system: M14
UO-31 = test system: UO-31
K562 = test system: K562
LOX IMVI = test system: LOX IMVI
MOLT-4 = test system: MOLT-4
IGROV-1 = test system: IGROV-1
COLO 205 = test system: COLO 205
OVCAR-5 = test system: OVCAR-5
A549 = test system: A549
HOP-92 = test system: HOP-92
SF-295 = test system: SF-295
UACC-257 = test system: UACC-257
SR = test system: SR
SF-539 = test system: SF-539
SF-268 = test system: SF-268
BT-549 = test system: BT-549
NCI-H460 = test system: NCI-H460
HL-60 = test system: HL-60

Measured: GI50

N#Cc1cc(N(CCCl)CCCl)c([N+](=O)[O-])cc1[N+](=O)[O-]
inactive: SK-MEL-5 > 100 µM | M14 > 100 µM | UO-31 > 100 µM | K562 > 100 µM | LOX IMVI 98.2 µM | MOLT-4 24 µM | IGROV-1 > 100 µM | COLO 205 > 100 µM | OVCAR-5 > 100 µM | A549 83.8 µM | HOP-92 > 100 µM | SF-295 > 100 µM | UACC-257 > 100 µM | SR 2.89 µM | SF-539 > 100 µM | SF-268 > 100 µM | BT-549 > 100 µM | NCI-H460 18.6 µM | HL-60 22.3 µM

COC(=O)c1ccc(NCc2cc(O)ccc2O)cc1O
inactive: SK-MEL-5 12.6 µM | M14 16.5 µM | UO-31 1.82 µM | K562 4.1 µM | LOX IMVI 13 µM | MOLT-4 2.09 µM | IGROV-1 8.97 µM | COLO 205 16.7 µM | OVCAR-5 16.7 µM | A549 12.2 µM | HOP-92 11.2 µM | SF-295 12.9 µM | UACC-257 15.7 µM | SR 5.48 µM | SF-539 1.91 µM | SF-268 7.29 µM | BT-549 3.44 µM | NCI-H460 14.4 µM | HL-60 1.67 µM

O=C(Cn1ccnc1[N+](=O)[O-])N(CCO)CCO
inactive: SK-MEL-5 > 141 µM | M14 > 250 µM | UO-31 > 250 µM | K562 > 250 µM | LOX IMVI > 1250 µM | MOLT-4 > 250 µM | IGROV-1 > 250 µM | COLO 205 > 1250 µM | OVCAR-5 > 250 µM | A549 > 250 µM | HOP-92 > 1250 µM | SF-295 > 250 µM | UACC-257 > 250 µM | SR > 79.1 µM | SF-539 > 250 µM | SF-268 > 250 µM | BT-549 > 250 µM | NCI-H460 > 1250 µM | HL-60 > 250 µM

CC1=NN2C(=N)/C(=C/c3ccco3)C(=O)N=C2S1
inactive: SK-MEL-5 > 100 µM | M14 > 100 µM | UO-31 > 100 µM | K562 > 100 µM | LOX IMVI > 100 µM | MOLT-4 > 100 µM | IGROV-1 > 100 µM | COLO 205 > 100 µM | OVCAR-5 > 100 µM | A549 > 100 µM | HOP-92 65.5 µM | SF-295 > 100 µM | UACC-257 > 100 µM | SR 50.4 µM | SF-539 > 100 µM | SF-268 > 100 µM | BT-549 > 100 µM | NCI-H460 > 100 µM | HL-60 > 100 µM

COc1ccc(-c2nc(-c3cnccn3)n(COCCO)n2)cc1
inactive: SK-MEL-5 > 100 µM | M14 > 100 µM | UO-31 > 100 µM | K562 > 100 µM | LOX IMVI > 100 µM | MOLT-4 > 100 µM | IGROV-1 > 100 µM | COLO 205 > 100 µM | OVCAR-5 > 100 µM | A549 > 100 µM | HOP-92 > 100 µM | SF-295 > 100 µM | UACC-257 > 100 µM | SR > 100 µM | SF-539 > 100 µM | SF-268 > 100 µM | BT-549 > 100 µM | NCI-H460 > 100 µM | HL-60 > 100 µM

COC(=O)c1cccc2c1Oc1ccccc1S2
inactive: SK-MEL-5 18.9 µM | M14 > 100 µM | UO-31 31.8 µM | K562 57.9 µM | LOX IMVI > 100 µM | MOLT-4 24.5 µM | IGROV-1 56.2 µM | COLO 205 19.6 µM | OVCAR-5 73.8 µM | A549 75.2 µM | HOP-92 25.8 µM | SF-295 60.8 µM | UACC-257 > 100 µM | SR > 100 µM | SF-539 55.1 µM | SF-268 38.8 µM | BT-549 60.3 µM | NCI-H460 44.3 µM | HL-60 8.18 µM

CCOP(=O)(C/C=C/Cn1nc(Br)c(=O)[nH]c1=O)OCC
inactive: SK-MEL-5 > 100 µM | M14 > 100 µM | UO-31 > 100 µM | K562 > 100 µM | LOX IMVI > 100 µM | MOLT-4 > 100 µM | IGROV-1 > 100 µM | COLO 205 > 100 µM | OVCAR-5 > 100 µM | A549 > 100 µM | HOP-92 > 100 µM | SF-295 > 100 µM | UACC-257 > 100 µM | SR > 100 µM | SF-539 > 100 µM | SF-268 > 100 µM | BT-549 > 100 µM | NCI-H460 > 100 µM | HL-60 > 100 µM

Cn1c(=S)c2nc(SCCN3C(=O)c4ccccc4C3=O)[nH]c2n(C)c1=O
inactive: SK-MEL-5 > 100 µM | M14 > 100 µM | UO-31 > 100 µM | K562 > 100 µM | LOX IMVI > 100 µM | MOLT-4 88.3 µM | IGROV-1 30.1 µM | COLO 205 > 100 µM | OVCAR-5 > 100 µM | A549 > 100 µM | HOP-92 > 100 µM | SF-295 > 100 µM | UACC-257 > 100 µM | SR 3.75 µM | SF-539 > 100 µM | SF-268 > 100 µM | BT-549 > 100 µM | NCI-H460 92.7 µM | HL-60 > 100 µM
